{
  "source": "patent US10064909B2",
  "about": "“Compositions and methods for chronic use of a weight-gaining compound” (priority 2015, dated 2018)",
  "key": {"[1]": {"system": "IGF-1", "assay": "Pilot clinical field study: IGF-1 serum levels", "type": "in vivo, cats", "method": "The key variable for the determination of effectiveness was bodyweight. Other effectiveness variables measured included body condition score, muscle condition score, quality of life assessments (unvalidated) and owner appetite assessments (unvalidated). Safety was assessed by physical examinations, clinical pathology testing (hematology and serum chemistry), urinalysis, serum IGF-1 levels and adverse event monitoring."}, "[2]": {"system": "IGF-1", "assay": "91-day cat safety study: serum IGF-1", "type": "in vivo", "conditions": "cats, 6 mg/kg, compared to placebo controls; sustained, peak at Day 30", "method": "This controlled study included two treatment groups with 4 adult cats receiving placebo (Group 1) and 8 adult cats receiving capromorelin (Formulation #9, as described above) (Group 2) for 91 consecutive days. All cats were offered food daily for a 6-hour period following an 11-day acclimation phase. All cats were weighed on Days −11, −1, 1, 14, 30, 59, 75, and 91. On Days 1 through 91, animals were orally administered capromorelin once daily via syringe at dose levels of 0 or 6 mg/kg. At one hour post-dose, all cats were offered food for a 6-hour period. Variables of interest included weight gain/loss, food consumption, clinical pathology, and serum analysis of IGF-1 and GH.\nOn Days 1, 30, 59, and 91, blood samples were collected prior to daily dose administration and at 8 hours post-dose and processed to serum for analysis of IGF-1 and GH levels. […] Serum chemistry parameters measured included albumin (ALB), creatine kinase (CK), albumin/globulin ratio (A\\G), globulin (GLOB), alkaline phosphatase (ALP), glucose (GLU), fructosamine, alanine aminotransferase (ALT), blood urea nitrogen (BUN), phosphorus (PHOS), calcium (Ca), potassium (K), chloride (Cl), sodium (Na), cholesterol (CHOL), total protein (TP), creatinine (CRE), total bilirubin (TBIL), BUN/creatinine ratio, and sodium/potassium ratio."}, "[3]": {"system": "IGF-1", "assay": "Example 9 field study: IGF-1 serum levels", "type": "in vivo", "conditions": "cats with CKD, 2 mg/kg once daily", "method": "A 1-mL blood sample was collected into a vacutainer tube containing no anticoagulant at the screening/qualification/Day 0, Day 30±2, Day 60±3 and Day 90±3 or at the last study visit (i.e. early removal). Blood samples were kept at room temperature and allowed to clot for about 1 hour. Clotted samples were centrifuged for approximately 15 minutes at 3000 RPM."}, "[4]": {"system": "IGF-1", "assay": "Laboratory cats modelling CKD safety pilot study: IGF-1 levels", "type": "in vivo", "conditions": "cats with compromised kidney function, 2 mg/kg subcutaneous injection for 14 days", "method": "Sixteen cats with compromised kidney function were enrolled in the study and randomized to three groups. Animals assigned to Group 1 (n=6) were administered AT-002 once on Day 0 by intravenous catheter at a dose rate of 0.75 mg/kg per cat. Animals assigned to Group 2 (n=6) were administered the AT-002 daily for 14 days by subcutaneous injection at a dose rate of 2 mg/kg. Subcutaneous and intravenous treatment routes were used to assure that sufficient drug exposure occurred. Animals assigned to Group 3 (n=4) served as untreated controls.\nBlood samples were collected for capromorelin and/or IGF-1 analysis from animals assigned to Group 1 on Study Day 0. Blood samples were also collected from animals assigned to Groups 2 and 3 on Study Days −1 and 13 (prior to dosing) for hematology and clinical chemistry analysis. Appetite was assessed by food intake and weight gain. Bodyweight measurements were performed on Days −7, −1 (all groups) and on Day 13 (Groups 2 and 3 only). Food intake was monitored from Day −7 to Day 13 inclusive for animals assigned to Groups 2 and 3. Animals were observed daily for clinical signs."}, "[5]": {"assay": "Cat dose titration laboratory study (21 days): food consumption and bodyweight", "type": "in vivo", "conditions": "cats; for Mean % Change (±SD) in Food Consumption Over 21 Days: Day 1-21 vs Days -3 to -1, listed as AT-002, L-tartrate; for Mean % Change (±SD) in Bodyweight Over 21 Days: Day 1 to Day 22", "method": "This study tested the effectiveness of an oral formulation of AT-002 in laboratory cats and to select a dose that would cause increased food intake and weight gain. This study investigated the effects of a capromorelin oral solution in cats dosed at 1 mg/kg, 2 mg/kg or 3 mg/kg compared to placebo (n=8/group) for 21 days. Food consumption was measured each day from Day −10 through Day 21. For each cat, baseline food consumption was calculated as the average of Days −3, −2 and −1. The percent change from baseline to treatment period was calculated as 100× (treatment period minus baseline)/baseline. Bodyweight was measured on Day 1, Day 8, Day 15 and Day 22. Baseline bodyweight was defined as the value collected on Day 1 (prior to treatment)."}, "[6]": {"assay": "Dose titration laboratory study (10 days): food consumption and bodyweight", "type": "in vivo", "conditions": "cats", "method": "This study defined a capromorelin oral solution dose regime that provides increased food intake and weight gain and the accompanying desired profile of IGF-1 serum levels. Laboratory adult cats were housed individually and divided into five groups (3/sex/group; n=6/group). Cats were dosed once daily for 10 consecutive days with either placebo, 1 mg/kg AT-002, 2 mg/kg AT-002, 3 mg/kg AT-002 or 4 mg/kg AT-002. The test article was a flavored solution formulation very similar to the final formulation. Study activities are summarized at Table 5.\nThe percent change in food consumption from baseline (average of Day −3, Day −2, and Day −1) compared to the treatment period (average of Day 1 through Day 10) was calculated for each cat, and is summarized at Table 6. The mean percent change from baseline to the treatment period for the placebo group increased 13.0%.\nThe percent change in bodyweight from Day −1 compared to Day 10 was calculated for each cat, and is summarized at table 7. The mean percent change for the placebo group was −0.35%, indicating a decrease in weight. […] The 4 mg/kg AT-002 group approached statistical significance (p=0.0502)"}},
  "note": "Values joined by “and” are separate entries in the source; they are usually repeats but may differ in a detail not shown here. Identical values can stand only once.",
  "data": [
    {"smiles": "CN1N=C2CCN(C(=O)[C@@H](COCc3ccccc3)NC(=O)C(C)(C)N)C[C@@]2(Cc2ccccc2)C1=O.O=C(O)C(O)C(O)C(=O)O", "note": "[capromorelin, N-[(2R)-1-[(3aR)-2-methyl-3-oxo-3a-(phenylmethyl)-6,7-dihydro-4H-pyrazolo[4,3-c]pyridin-5-yl]-1-oxo-3-(phenylmethoxy)propan-2-yl]-2-amino-2-methylpropanamide L-tartrate]", "values": [
      {"measurement": "IGF-1 Serum Levels, Mean Levels (SEM)", "setting": "[1]; 2 mg/kg once daily, Day 30", "value": "855.60 ± 72.74", "unit": "ng/mL"},
      {"measurement": "IGF-1 Serum Levels, Change over baseline (Day 0)", "setting": "[1]; 2 mg/kg once daily, Day 30, L-tartrate", "value": "274.60 ± 49.06", "unit": "ng/mL"},
      {"measurement": "IGF-1 Serum Levels, Change over baseline (Day 0)", "setting": "[1]; 2 mg/kg once daily, Day 60", "value": "195.64 ± 40.70", "unit": "ng/mL"},
      {"measurement": "IGF-1 Serum Levels, Mean Levels (SEM)", "setting": "[1]; 2 mg/kg once daily, Day 60", "value": "752.55 ± 56.89", "unit": "ng/mL"},
      {"measurement": "IGF-1 Serum Levels, Change over baseline (Day 0)", "setting": "[1]; 2 mg/kg once daily, Day 90", "value": "163.82 ± 52.74", "unit": "ng/mL"},
      {"measurement": "IGF-1 Serum Levels, Mean Levels (SEM)", "setting": "[1]; 2 mg/kg once daily, Day 90", "value": "720.73 ± 65.70", "unit": "ng/mL"},
      {"measurement": "IGF-1 Serum Levels, Mean Levels (SEM)", "setting": "[1]; capromorelin group, Day 0 (baseline)", "value": "556.91 ± 64.30", "unit": "ng/mL"},
      {"measurement": "IGF-1 following treatment", "setting": "[2]", "value": "increased"},
      {"measurement": "IGF-1 serum levels following administration", "setting": "[3]", "value": "increase"},
      {"measurement": "IGF-1 levels", "setting": "[4]", "value": "sustained increase"},
      {"measurement": "Mean % Change (±SD) in Food Consumption Over 21 Days", "setting": "[5]; 1 mg/kg, 1 mg/kg", "value": "25.3% and 25.32 ± 16.70%"},
      {"measurement": "Mean % Change (±SD) in Bodyweight Over 21 Days", "setting": "[5]; 1 mg/kg", "value": "5.41 ± 4.11", "unit": "%"},
      {"measurement": "Mean % Change (±SD) in Food Consumption Over 21 Days", "setting": "[5]; 2 mg/kg, 2 mg/kg", "value": "45.7% and 45.67 ± 24.39%"},
      {"measurement": "Mean % Change (±SD) in Bodyweight Over 21 Days", "setting": "[5]; 2 mg/kg", "value": "6.61 ± 5.05", "unit": "%"},
      {"measurement": "Mean % Change (±SD) in Food Consumption Over 21 Days", "setting": "[5]; 3 mg/kg, 3 mg/kg", "value": "29.6% and 29.59 ± 13.65%"},
      {"measurement": "Mean % Change (±SD) in Bodyweight Over 21 Days", "setting": "[5]; 3 mg/kg", "value": "3.92 ± 5.15", "unit": "%"},
      {"measurement": "Food Consumption, Percent Change From Baseline", "setting": "[6]; 1 mg/kg SID, Day 1-10 vs Days -3 to -1", "value": 30.54, "unit": "%"},
      {"measurement": "Bodyweight, Percent Change From Baseline", "setting": "[6]; 1 mg/kg SID, Day -1 to Day 10", "value": 3.07, "unit": "%"},
      {"measurement": "Food Consumption, Percent Change From Baseline", "setting": "[6]; 2 mg/kg SID, Day 1-10 vs Days -3 to -1", "value": 45.53, "unit": "%"},
      {"measurement": "Bodyweight, Percent Change From Baseline", "setting": "[6]; 2 mg/kg SID, Day -1 to Day 10", "value": 3.66, "unit": "%"},
      {"measurement": "Food Consumption, Percent Change From Baseline", "setting": "[6]; 3 mg/kg SID, Day 1-10 vs Days -3 to -1", "value": 54.04, "unit": "%"},
      {"measurement": "Bodyweight, Percent Change From Baseline", "setting": "[6]; 3 mg/kg SID, Day -1 to Day 10", "value": 5.72, "unit": "%"},
      {"measurement": "Food Consumption, Percent Change From Baseline", "setting": "[6]; 4 mg/kg SID, minus 5F1, Day 1-10 vs Days -3 to -1", "value": 78.82, "unit": "%"},
      {"measurement": "Bodyweight, Percent Change From Baseline", "setting": "[6]; 4 mg/kg SID, minus 5F1, Day -1 to Day 10", "value": 3.57, "unit": "%"}
    ]}
  ]
}
